Measured values as given in patent US8822517B2, “Arylosulfonamides for the treatment of CNS diseases” (Adamed SP. Z O.O., priority 2010, dated 2014).

Tests used:
[1] = molecular target: T1, serotoninergic receptor 5-HT2C (Homo sapiens, UniProt P28335); assay: Binding assay 5-HT2C (h), [3H]mesulergine, HEK-293 cells; conditions: read-out: 5-HT2C [%]
T1 construct: expressed in transfected cells; host or cells: HEK-293 cells
T1 sequence (P28335 33-458): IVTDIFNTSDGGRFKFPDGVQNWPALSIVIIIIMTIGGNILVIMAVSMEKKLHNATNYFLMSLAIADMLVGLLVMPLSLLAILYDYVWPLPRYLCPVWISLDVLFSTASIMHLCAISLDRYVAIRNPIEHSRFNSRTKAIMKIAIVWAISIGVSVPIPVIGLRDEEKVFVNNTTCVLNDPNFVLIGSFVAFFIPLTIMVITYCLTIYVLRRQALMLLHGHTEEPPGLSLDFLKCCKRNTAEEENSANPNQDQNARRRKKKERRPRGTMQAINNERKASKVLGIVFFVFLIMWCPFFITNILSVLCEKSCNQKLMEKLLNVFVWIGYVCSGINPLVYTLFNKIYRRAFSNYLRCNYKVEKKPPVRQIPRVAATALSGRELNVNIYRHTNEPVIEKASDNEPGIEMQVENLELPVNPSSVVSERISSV
How it was run: (§1)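 Radioligand displacement at 1×10^−6 M compound, with detection by scintillation counting. Nonspecific signal is measured using an excess of non-radioactive ligand.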

[2] = molecular target: T2, serotoninergic 5-HT6 receptor (Homo sapiens, UniProt P50406); assay: Cellular functional assay, serotoninergic 5-HT6 receptor (agonism/antagonism); assay type: cell-based; conditions: for activation at 1 µM: agonist effect, percent of control specific agonist response, compounds tested at 1×10^−6M, read-out: 5-HT6-ag [%]; for inhibition at 1 µM: read-out: 5-HT6-antag. [%]
T2 sequence (P50406 whole entry): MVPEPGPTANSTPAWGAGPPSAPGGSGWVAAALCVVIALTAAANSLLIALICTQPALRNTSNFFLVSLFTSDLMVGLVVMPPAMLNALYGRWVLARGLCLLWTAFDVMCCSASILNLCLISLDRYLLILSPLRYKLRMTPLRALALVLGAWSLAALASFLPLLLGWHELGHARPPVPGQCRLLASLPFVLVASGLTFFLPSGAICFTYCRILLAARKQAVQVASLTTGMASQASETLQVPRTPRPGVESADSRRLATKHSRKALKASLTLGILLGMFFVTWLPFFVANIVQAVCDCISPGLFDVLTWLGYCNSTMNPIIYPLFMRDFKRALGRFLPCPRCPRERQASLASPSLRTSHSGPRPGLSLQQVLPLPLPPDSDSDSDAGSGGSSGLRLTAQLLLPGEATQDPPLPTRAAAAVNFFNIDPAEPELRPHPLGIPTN
Method: (§2) The compounds were tested at the concentration of 1×10^−6M.
(§3) In the Tables ag refers to agonism, and antag to antagonism).

adrenergic α2C receptor = molecular target: T3, adrenergic α2C receptor (Homo sapiens, UniProt P18825); assay: Cellular functional assay, adrenergic α2C receptor (agonism/antagonism); assay type: cell-based; conditions: for activation at 1 µM: agonist effect, percent of control specific agonist response, compounds tested at 1×10^−6M, read-out: α2C −ag [%]; for inhibition at 1 µM: read-out: α2C −antag. [%]
T3 sequence (P18825 1-462): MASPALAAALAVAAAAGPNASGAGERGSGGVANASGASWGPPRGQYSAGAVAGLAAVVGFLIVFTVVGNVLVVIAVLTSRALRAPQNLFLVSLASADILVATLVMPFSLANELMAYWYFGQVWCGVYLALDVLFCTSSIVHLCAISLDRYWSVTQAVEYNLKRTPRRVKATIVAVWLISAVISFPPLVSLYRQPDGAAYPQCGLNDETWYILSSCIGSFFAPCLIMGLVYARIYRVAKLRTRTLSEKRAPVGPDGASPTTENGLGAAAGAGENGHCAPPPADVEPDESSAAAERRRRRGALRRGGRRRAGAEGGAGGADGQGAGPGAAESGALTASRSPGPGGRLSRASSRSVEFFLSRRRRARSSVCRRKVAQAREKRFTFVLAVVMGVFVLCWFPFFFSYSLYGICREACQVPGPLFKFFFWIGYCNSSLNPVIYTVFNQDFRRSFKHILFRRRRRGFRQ
Method: as §2, §3

[3] = molecular target: histaminergic H1 receptor (Homo sapiens, UniProt P35367); assay: Cellular functional assay, histaminergic H1 receptor (agonism/antagonism); assay type: cell-based; conditions: for activation at 1 µM: agonist effect, percent of control specific agonist response, compounds tested at 1×10^−6M, read-out: H1 -ag [%]; for inhibition at 1 µM: read-out: H1 -antag. [%]
Sequence of histaminergic H1 receptor (P35367 whole entry): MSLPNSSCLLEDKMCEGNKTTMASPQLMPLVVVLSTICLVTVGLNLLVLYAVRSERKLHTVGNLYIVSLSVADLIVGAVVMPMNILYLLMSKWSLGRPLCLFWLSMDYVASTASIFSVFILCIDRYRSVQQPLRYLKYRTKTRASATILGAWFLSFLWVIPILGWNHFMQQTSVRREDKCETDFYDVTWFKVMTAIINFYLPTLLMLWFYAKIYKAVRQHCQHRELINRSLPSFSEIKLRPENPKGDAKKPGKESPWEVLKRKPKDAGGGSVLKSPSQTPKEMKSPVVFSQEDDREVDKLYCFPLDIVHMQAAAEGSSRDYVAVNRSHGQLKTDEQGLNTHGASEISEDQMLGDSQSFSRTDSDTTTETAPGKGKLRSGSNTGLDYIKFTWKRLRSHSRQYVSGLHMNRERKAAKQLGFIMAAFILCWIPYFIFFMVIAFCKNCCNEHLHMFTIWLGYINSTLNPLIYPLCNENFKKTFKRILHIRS
Method: as §2, §3

dopaminergic D3 receptor = dopaminergic D3 receptor (Homo sapiens, UniProt P35462); assay: Binding assay D3 (h), [3H]methyl-spiperone, CHO cells; set-up: expressed in transfected cells; host or cells: CHO cells; conditions: read-out: D3 [%]
Sequence of dopaminergic D3 receptor (P35462 whole entry): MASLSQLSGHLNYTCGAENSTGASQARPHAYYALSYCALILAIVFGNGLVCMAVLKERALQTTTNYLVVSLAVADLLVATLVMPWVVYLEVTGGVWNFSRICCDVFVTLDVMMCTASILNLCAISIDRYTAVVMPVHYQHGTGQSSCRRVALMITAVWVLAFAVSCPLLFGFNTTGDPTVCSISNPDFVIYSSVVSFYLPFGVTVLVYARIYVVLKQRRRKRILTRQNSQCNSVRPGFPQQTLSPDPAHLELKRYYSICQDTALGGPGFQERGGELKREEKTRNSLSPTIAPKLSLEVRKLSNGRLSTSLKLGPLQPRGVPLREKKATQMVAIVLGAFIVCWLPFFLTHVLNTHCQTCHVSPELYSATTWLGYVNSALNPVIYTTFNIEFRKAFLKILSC
How it was run: as §1

[4] = molecular target: T2, serotoninergic 5-HT6 receptor; assay: Binding assay 5-HT6 (h), [3H]LSD, CHO cells; set-up: expressed in transfected cells; host or cells: CHO cells; conditions: read-out: 5-HT6
How it was run: as §1

[5] = molecular target: T4, serotoninergic 5-HT1A receptor (Homo sapiens, UniProt P08908); assay: Binding assay 5-HT1A (h), [3H]8-OH-DPAT, HEK-293 cells; set-up: expressed in transfected cells; host or cells: HEK-293 cells; conditions: read-out: 5-HT1A
T4 sequence (P08908 1-422): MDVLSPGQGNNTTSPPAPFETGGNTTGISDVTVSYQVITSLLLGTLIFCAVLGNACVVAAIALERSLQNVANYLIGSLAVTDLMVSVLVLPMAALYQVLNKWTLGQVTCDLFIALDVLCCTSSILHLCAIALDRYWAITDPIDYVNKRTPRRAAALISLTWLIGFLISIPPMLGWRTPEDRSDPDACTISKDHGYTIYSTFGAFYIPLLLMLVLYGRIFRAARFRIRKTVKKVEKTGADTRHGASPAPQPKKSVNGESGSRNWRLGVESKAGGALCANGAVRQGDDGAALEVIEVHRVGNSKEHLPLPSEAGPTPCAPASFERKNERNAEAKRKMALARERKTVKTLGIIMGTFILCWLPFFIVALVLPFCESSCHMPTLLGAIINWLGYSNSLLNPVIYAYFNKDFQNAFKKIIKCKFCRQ
How it was run: as §1

[6] = molecular target: T4, serotoninergic 5-HT1A receptor; assay: Cellular functional assay, serotoninergic 5-HT1A receptor (agonism/antagonism); assay type: cell-based; conditions: for inhibition at 1 µM: CHO, read-out: 5-HT1A-antag. [%]; for activation at 1 µM: agonist effect, percent of control specific agonist response (100 nM 8-OH-DPAT for control), 1×10^−6 M, 5-HT1A (h), CHO cells, read-out: 5-HT1A-ag [%]
Method: as §2, §3

## O=S(=O)(NCCCCN1CCN(c2noc3ccccc23)CC1)c1ccc2cc(Cl)ccc2c1 [Compound 79, N-[4-[4-(1,2-Benzoxazol-3-yl)piperazin-1-yl]butyl]-6-chloro-naphthalene-2-sulphonamide]
[1]
  inhibition at 1 µM: 72%
[2]
  activation at 1 µM: 1%
  inhibition at 1 µM: 76%
Adrenergic α2C receptor
  activation at 1 µM: 7%
  inhibition at 1 µM: 22%
[3]
  activation at 1 µM: 0%
  inhibition at 1 µM: 57%
Dopaminergic D3 receptor
  inhibition at 1 µM: 96%
[4]
  inhibition at 1 µM: 97%
[5]
  inhibition at 1 µM: 84%

## O=S(=O)(NCCCCN1CCN(c2noc3ccccc23)CC1)c1c[nH]c2ncccc12 [Compound 89, N-[4-[4-(1,2-Benzoxazol-3-yl)piperazin-1-yl]butyl]-1H-pyrrolo[2,3-b]pyridine-3-sulphonamide]
[1]
  inhibition at 1 µM: 34%
[2]
  activation at 1 µM: 0%
  inhibition at 1 µM: 83%
Adrenergic α2C receptor
  activation at 1 µM: -10%
  inhibition at 1 µM: 7%
Dopaminergic D3 receptor
  inhibition at 1 µM: 95%
[4]
  inhibition at 1 µM: 94%
[5]
  inhibition at 1 µM: 71%

## O=S(=O)(NCCCN1CCC(c2noc3cc(F)ccc23)CC1)c1ccc2cc(Cl)ccc2c1 [Compound 98, 6-Chloro-N-[3-[4-(6-fluoro-1,2-benzoxazol-3-yl)piperidin-1-yl]propyl]naphthalene-2-sulphonamide]
[1]
  inhibition at 1 µM: 91%
[2]
  activation at 1 µM: -2%
  inhibition at 1 µM: 79%
Adrenergic α2C receptor
  activation at 1 µM: -1%
  inhibition at 1 µM: 16%
[3]
  activation at 1 µM: -1%
  inhibition at 1 µM: 78%
Dopaminergic D3 receptor
  inhibition at 1 µM: 104%
[4]
  inhibition at 1 µM: 98%
[5]
  inhibition at 1 µM: 80%

## O=S(=O)(NCCCCN1CCN(c2noc3ccccc23)CC1)c1ccc(-c2ccccc2)cc1 [Compound 283, N-[4-[4-(1,2-Benzoxazol-3-yl)piperazin-1-yl]butyl]-4-phenylbenzenesulphonamide]
[1]
  inhibition at 1 µM: 80%
[2]
  activation at 1 µM: 0%
  inhibition at 1 µM: 64%
Adrenergic α2C receptor
  activation at 1 µM: 2%
  inhibition at 1 µM: 25%
[3]
  activation at 1 µM: 0%
  inhibition at 1 µM: 41%
Dopaminergic D3 receptor
  inhibition at 1 µM: 101%
[4]
  inhibition at 1 µM: 96%
[5]
  inhibition at 1 µM: 89%

## O=S(=O)(NCCCCN1CCC(c2noc3cc(F)ccc23)CC1)c1cc2ccccc2s1 [Compound 312, N-[4-[4-(6-Fluoro-1,2-benzoxazol-3-yl)piperidin-1-yl]butyl]benzothiophene-2-sulphonamide]
[1]
  inhibition at 1 µM: 80%
[2]
  activation at 1 µM: -1%
  inhibition at 1 µM: 76%
Adrenergic α2C receptor
  activation at 1 µM: 61%
  inhibition at 1 µM: 39%
Dopaminergic D3 receptor
  inhibition at 1 µM: 97%
[4]
  inhibition at 1 µM: 98%
[5]
  inhibition at 1 µM: 86%

## O=c1[nH]c2cccc(N3CCN(CCCNS(=O)(=O)c4cccc5ccccc45)CC3)c2[nH]1 [Compound 423, N-[3-[4-(2-oxo-1,3-dihydrobenzimidazol-4-yl)piperazin-1-yl]propyl]naphthalene-1-sulphonamide]
[1]
  inhibition at 1 µM: 9%
[6]
  inhibition at 1 µM: 73%
  activation at 1 µM: 35%
Dopaminergic D3 receptor
  inhibition at 1 µM: 98%
[4]
  inhibition at 1 µM: 16%
[5]
  inhibition at 1 µM: 99%

## O=c1[nH]c2cccc(N3CCN(CCCNS(=O)(=O)c4ccc5ccccc5c4)CC3)c2[nH]1 [Compound 424, N-[3-[4-(2-oxo-1,3-dihydrobenzimidazol-4-yl)piperazin-1-yl]propyl]naphthalene-2-sulphonamide]
[1]
  inhibition at 1 µM: 8%
[6]
  inhibition at 1 µM: 75%
  activation at 1 µM: 23%
Dopaminergic D3 receptor
  inhibition at 1 µM: 98%
[4]
  inhibition at 1 µM: 69%
[5]
  inhibition at 1 µM: 99%
